From the NIST ThermoML archive (doi:10.1016/j.jct.2015.09.002)
Numbers after ± are expanded uncertainties.

Assay: xn = mol fraction of the nth substance listed
Details: 93.2 kPa, Liquid, Vibrating tube method

CCCNCCC [dipropylamine] + CC#N
mass density [kg/m3]
Details	293.15 K	298.15 K	303.15 K	308.15 K
x2 = 0	738.18 ± 2	733.64 ± 2	729.07 ± 2	724.48 ± 2
x2 = 0.0106	738.6 ± 2	734.04 ± 2	729.47 ± 2	724.87 ± 2
x2 = 0.0215	738.86 ± 2	734.31 ± 2	729.71 ± 2	725.09 ± 2
x2 = 0.0323	739.1 ± 2	734.53 ± 2	729.92 ± 2	725.29 ± 2
x2 = 0.0406	739.28 ± 2	734.72 ± 2	730.09 ± 2	725.48 ± 2
x2 = 0.0507	739.51 ± 2	734.94 ± 2	730.32 ± 2	725.71 ± 2
x2 = 0.0605	739.75 ± 2	735.16 ± 2	730.53 ± 2	725.91 ± 2
x2 = 0.0684	739.93 ± 2	735.34 ± 2	730.7 ± 2	726.08 ± 2
x2 = 0.0801	740.21 ± 2	735.61 ± 2	730.96 ± 2	726.32 ± 2
x2 = 0.0926	740.51 ± 2	735.91 ± 2	731.26 ± 2	726.61 ± 2
x2 = 0.101	740.71 ± 2	736.11 ± 2	731.45 ± 2	726.79 ± 2
x2 = 0.1493	741.88 ± 2	737.23 ± 2	732.56 ± 2	727.89 ± 2
x2 = 0.2009	743.16 ± 2	738.47 ± 2	733.79 ± 2	729.06 ± 2
x2 = 0.2547	744.47 ± 2	739.78 ± 2	735.06 ± 2	730.34 ± 2
x2 = 0.3001	745.65 ± 2	740.94 ± 2	736.2 ± 2	731.45 ± 2
x2 = 0.3514	747.06 ± 2	742.32 ± 2	737.55 ± 2	732.77 ± 2
x2 = 0.3995	748.45 ± 2	743.68 ± 2	738.88 ± 2	734.07 ± 2
x2 = 0.4556	750.19 ± 2	745.39 ± 2	740.57 ± 2	735.71 ± 2
x2 = 0.5008	751.71 ± 2	746.88 ± 2	742.02 ± 2	737.15 ± 2
x2 = 0.551	753.52 ± 2	748.66 ± 2	743.77 ± 2	738.86 ± 2
x2 = 0.6037	755.61 ± 2	750.71 ± 2	745.77 ± 2	740.81 ± 2
x2 = 0.6481	757.56 ± 2	752.63 ± 2	747.66 ± 2	742.67 ± 2
x2 = 0.6992	760.02 ± 2	755.04 ± 2	750.02 ± 2	744.98 ± 2
x2 = 0.7495	762.68 ± 2	757.65 ± 2	752.58 ± 2	747.48 ± 2
x2 = 0.7997	765.7 ± 2	760.61 ± 2	755.49 ± 2	750.33 ± 2
x2 = 0.8496	769.02 ± 2	763.85 ± 2	758.66 ± 2	753.43 ± 2
x2 = 0.9002	772.87 ± 2	767.63 ± 2	762.35 ± 2	757.05 ± 2
x2 = 0.9092	773.6 ± 2	768.35 ± 2	763.04 ± 2	757.76 ± 2
x2 = 0.9194	774.47 ± 2	769.22 ± 2	763.9 ± 2	758.59 ± 2
x2 = 0.9298	775.37 ± 2	770.09 ± 2	764.79 ± 2	759.45 ± 2
x2 = 0.9492	777.14 ± 2	771.83 ± 2	766.49 ± 2	761.13 ± 2
x2 = 0.9697	779.11 ± 2	773.75 ± 2	768.36 ± 2	762.97 ± 2
x2 = 0.9892	781.03 ± 2	775.63 ± 2	770.22 ± 2	764.78 ± 2

CCCN [propan-1-amine] + CC#N
mass density [kg/m3]
Details	293.15 K	298.15 K	303.15 K	308.15 K
x2 = 0	716.48 ± 2	711.21 ± 2	705.88 ± 2	700.62 ± 2
x2 = 0.0105	717.02 ± 2	711.79 ± 2	706.42 ± 2	701.16 ± 2
x2 = 0.0199	717.49 ± 2	712.26 ± 2	706.89 ± 2	701.63 ± 2
x2 = 0.0296	717.97 ± 2	712.74 ± 2	707.37 ± 2	702.11 ± 2
x2 = 0.0409	718.55 ± 2	713.3 ± 2	708.3 ± 2	702.66 ± 2
x2 = 0.0512	719.01 ± 2	713.79 ± 2	708.42 ± 2	703.16 ± 2
x2 = 0.061	719.48 ± 2	714.26 ± 2	708.9 ± 2	703.65 ± 2
x2 = 0.0707	719.96 ± 2	714.7 ± 2	709.38 ± 2	704.14 ± 2
x2 = 0.0809	720.48 ± 2	715.23 ± 2	710.24 ± 2	704.64 ± 2
x2 = 0.0895	720.87 ± 2	715.66 ± 2	710.31 ± 2	705.06 ± 2
x2 = 0.0993	721.35 ± 2	716.14 ± 2	710.79 ± 2	705.55 ± 2
x2 = 0.1493	723.85 ± 2	718.65 ± 2	713.34 ± 2	708.1 ± 2
x2 = 0.2006	726.46 ± 2	721.27 ± 2	715.97 ± 2	710.75 ± 2
x2 = 0.2499	729.08 ± 2	723.91 ± 2	718.64 ± 2	713.3 ± 2
x2 = 0.2998	731.77 ± 2	726.59 ± 2	721.31 ± 2	715.96 ± 2
x2 = 0.3507	734.55 ± 2	729.34 ± 2	724.05 ± 2	718.82 ± 2
x2 = 0.3993	737.38 ± 2	732.18 ± 2	726.9 ± 2	721.58 ± 2
x2 = 0.4479	740.27 ± 2	735.05 ± 2	729.77 ± 2	724.44 ± 2
x2 = 0.4988	743.34 ± 2	738.1 ± 2	732.79 ± 2	727.56 ± 2
x2 = 0.5486	746.55 ± 2	741.33 ± 2	736.02 ± 2	730.68 ± 2
x2 = 0.6017	750.02 ± 2	744.77 ± 2	739.46 ± 2	734.16 ± 2
x2 = 0.6499	753.32 ± 2	748.08 ± 2	742.76 ± 2	737.45 ± 2
x2 = 0.6998	756.86 ± 2	751.61 ± 2	746.49 ± 2	740.98 ± 2
x2 = 0.7501	760.68 ± 2	755.4 ± 2	750.19 ± 2	744.7 ± 2
x2 = 0.8001	764.57 ± 2	759.28 ± 2	754.03 ± 2	748.54 ± 2
x2 = 0.8487	768.54 ± 2	763.25 ± 2	757.85 ± 2	752.47 ± 2
x2 = 0.8995	772.9 ± 2	767.55 ± 2	762.15 ± 2	756.72 ± 2
x2 = 0.9089	773.68 ± 2	768.32 ± 2	762.93 ± 2	757.54 ± 2
x2 = 0.9201	774.65 ± 2	769.28 ± 2	763.89 ± 2	758.5 ± 2
x2 = 0.928	775.36 ± 2	770 ± 2	764.6 ± 2	759.19 ± 2
x2 = 0.9393	776.43 ± 2	771.07 ± 2	765.67 ± 2	760.24 ± 2
x2 = 0.9491	777.27 ± 2	771.89 ± 2	766.51 ± 2	761.05 ± 2
x2 = 0.9594	778.22 ± 2	772.82 ± 2	767.45 ± 2	761.98 ± 2
x2 = 0.9678	778.99 ± 2	773.6 ± 2	768.21 ± 2	762.74 ± 2
x2 = 0.9795	780.09 ± 2	774.69 ± 2	769.3 ± 2	763.82 ± 2
x2 = 0.9893	781.01 ± 2	775.61 ± 2	770.21 ± 2	764.73 ± 2

CCN(CC)CC [triethylamine] + CC#N
mass density [kg/m3]
Details	293.15 K	298.15 K	303.15 K	308.15 K
x2 = 0	727.7 ± 2	723.02 ± 2	718.36 ± 2	713.65 ± 2
x2 = 0.0113	728.13 ± 2	723.44 ± 2	718.77 ± 2	714.06 ± 2
x2 = 0.0212	728.41 ± 2	723.73 ± 2	719.05 ± 2	714.32 ± 2
x2 = 0.03	728.67 ± 2	723.97 ± 2	719.29 ± 2	714.57 ± 2
x2 = 0.0406	728.98 ± 2	724.28 ± 2	719.6 ± 2	714.86 ± 2
x2 = 0.0502	729.23 ± 2	724.53 ± 2	719.84 ± 2	715.1 ± 2
x2 = 0.0591	729.48 ± 2	724.77 ± 2	720.06 ± 2	715.32 ± 2
x2 = 0.0701	729.78 ± 2	725.07 ± 2	720.35 ± 2	715.6 ± 2
x2 = 0.0842	730.18 ± 2	725.45 ± 2	720.73 ± 2	715.97 ± 2
x2 = 0.0944	730.47 ± 2	725.73 ± 2	721.02 ± 2	716.24 ± 2
x2 = 0.1013	730.66 ± 2	725.97 ± 2	721.24 ± 2	716.48 ± 2
x2 = 0.1519	732.16 ± 2	727.46 ± 2	722.63 ± 2	717.85 ± 2
x2 = 0.1991	733.6 ± 2	728.85 ± 2	723.99 ± 2	719.16 ± 2
x2 = 0.2501	735.21 ± 2	730.39 ± 2	725.53 ± 2	720.64 ± 2
x2 = 0.3018	736.94 ± 2	732.07 ± 2	727.17 ± 2	722.25 ± 2
x2 = 0.3505	738.65 ± 2	733.76 ± 2	728.84 ± 2	723.88 ± 2
x2 = 0.4003	740.52 ± 2	735.58 ± 2	730.62 ± 2	725.63 ± 2
x2 = 0.4482	742.43 ± 2	737.48 ± 2	732.49 ± 2	727.48 ± 2
x2 = 0.5002	744.69 ± 2	739.7 ± 2	734.68 ± 2	729.63 ± 2
x2 = 0.5511	747.1 ± 2	742.08 ± 2	737.03 ± 2	731.95 ± 2
x2 = 0.5995	749.58 ± 2	744.55 ± 2	739.43 ± 2	734.36 ± 2
x2 = 0.6499	752.4 ± 2	747.32 ± 2	742.18 ± 2	737.06 ± 2
x2 = 0.702	755.6 ± 2	750.5 ± 2	745.3 ± 2	740.16 ± 2
x2 = 0.7498	758.83 ± 2	753.71 ± 2	748.42 ± 2	743.28 ± 2
x2 = 0.7998	762.53 ± 2	757.35 ± 2	752.07 ± 2	746.81 ± 2
x2 = 0.85	766.68 ± 2	761.45 ± 2	756.13 ± 2	750.82 ± 2
x2 = 0.8994	771.19 ± 2	765.92 ± 2	760.59 ± 2	755.2 ± 2
x2 = 0.9095	772.21 ± 2	766.93 ± 2	761.6 ± 2	756.23 ± 2
x2 = 0.9199	773.25 ± 2	767.97 ± 2	762.63 ± 2	757.25 ± 2
x2 = 0.9293	774.23 ± 2	768.93 ± 2	763.58 ± 2	758.19 ± 2
x2 = 0.9402	775.35 ± 2	770.05 ± 2	764.69 ± 2	759.29 ± 2
x2 = 0.9495	776.36 ± 2	771.03 ± 2	765.7 ± 2	760.33 ± 2
x2 = 0.9591	777.43 ± 2	772.08 ± 2	766.69 ± 2	761.27 ± 2
x2 = 0.9685	778.48 ± 2	773.13 ± 2	767.72 ± 2	762.31 ± 2
x2 = 0.99	780.9 ± 2	775.52 ± 2	770.1 ± 2	764.64 ± 2
